In experiment [1] the test system is platelet aggregation caused by U-46619. Briefly: Test Example 1: Platelet aggregation inhibiting activity (human PRP, U-46619). The class given is cell-based. The settings on record: for IC50: Platelet, 320 nM U-46619, 37° C., read-out: Inhibitory effect against platelet aggregation caused by U-46619 (IC50); for platelet aggregation inhibiting activity (in words): U-46619. How it is done: (§1) A blood sample was collected from human fore arm using a syringe containing 3.8% sodium citrate solution (1/10 volume of the blood to be collected) and centrifuged to obtain platelet rich plasma (PRP; 3 ×10^5 platelets/μ1).
(§2) Platelet aggregation was measured using an aggregometer (Hematracer VI, Niko Bioscience Co., Ltd.) by putting 200 µl of the thus prepared PRP and 23.75 µl of physiological saline in a cuvette, setting the cuvette into the aggregometer and incubating the contents at 37° C. for 2 minutes, adding 1.25 μ1 dimethyl sulfoxide (DMSO) solution of each of the N-(3-pyridylalkyl)sulfonamide derivatives obtained in Examples 1, 3, 4, 6 and 8 and incubating for 3 minutes, and then adding U-46619 (Cayman Chemical Co., Inc.) which is a stable PGG2/ H2 derivative having a strong platelet aggregation causing activity.
In this instance, the term "IC50 "as used herein means concentration of the N-(3-pyridylalkyl)sulfonamide derivative of the present invention required to inhibit 50% of the platelet agglutination when platelet aggregation without introducing the inventive derivative was defined as 100%.

Experiment [2] concerns the target T1, thromboxane synthetase (Homo sapiens, UniProt P24557).
T1 sequence (P24557 1-533): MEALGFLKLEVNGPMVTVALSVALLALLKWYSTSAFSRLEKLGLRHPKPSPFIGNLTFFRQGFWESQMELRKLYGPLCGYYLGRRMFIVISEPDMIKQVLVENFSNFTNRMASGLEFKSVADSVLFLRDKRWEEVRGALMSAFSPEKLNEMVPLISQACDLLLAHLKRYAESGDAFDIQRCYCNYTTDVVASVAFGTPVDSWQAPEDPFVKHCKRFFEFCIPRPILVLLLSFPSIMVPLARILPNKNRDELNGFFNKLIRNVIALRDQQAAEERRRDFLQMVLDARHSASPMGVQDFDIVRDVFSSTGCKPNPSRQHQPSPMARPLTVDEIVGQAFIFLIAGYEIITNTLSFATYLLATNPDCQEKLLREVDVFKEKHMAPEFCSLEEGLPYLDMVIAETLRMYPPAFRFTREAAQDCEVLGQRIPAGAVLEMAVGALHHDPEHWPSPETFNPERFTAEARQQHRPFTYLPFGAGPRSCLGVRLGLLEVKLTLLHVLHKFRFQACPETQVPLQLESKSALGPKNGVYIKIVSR
Kind of experiment: Test Example 2: Thromboxane synthetase inhibiting activity (human PRP, thrombin, RIA). The class given is cell-based. To be noted: for IC50: 20 U/ml thrombin, RIA, read-out: Inhibition of thromboxane A2 synthesis (IC50). As to the method:
as §1
(§3) A 200 μ1 portion of the thus prepared PRP and 23.75 µl of physiological saline were put in a cuvette, the cuvette was set into the aforementioned aggregometer and the contents in the cuvette were incubated at 37° C. for 2 minutes. Thereafter, 1.25 μ1 dimethyl sulfoxide (DMSO) solution of each of the N-(3-pyridylalkyl)sulfonamide derivatives obtained in Examples 1, 3 and 7 was put in the cuvette and incubated for 3 minutes, followed by the addition of 20 U/ml solution of thrombin to cause platelet aggregation. A portion of the supernatant after aggregation reaction was mixed with diethyl ether/methanol/0.2M citric acid (30:4:1 ), and the thus formed thromboxane A2 was extracted and its quantity was analyzed by RIA using a kit of Amersham.

The target in experiment [3] is T1, thromboxane synthetase. Briefly: Test Example 5: Thromboxane synthetase inhibiting activity (human platelet microsomal fraction, RIA). The experiment is classed as biochemical. To be noted: PGH2, room temperature, 60 seconds, read-out: Inhibition of thromboxane synthetase IC50. As to the method:
Arachidonic acid (10 nM) was added to 250 μg of microsome of sheep seminal vesicle gland, commercially available from Hilran Biochemical, Co. Ltd., Israel, Lot SM36, which was then reacted at room temperature for 90 seconds to prepare PGH2.
Commercially available human platelet microsomal fraction (200 μg) as a source for thromboxane synthetase was mixed with the PGH2 solution prepared in the same manner as for samples, and reacted together at room temperature for 60 seconds. Diethyl ether/methanol/0.2M citric acid (30:4:1) was added to extract thromboxane A2 generated and its quantity was then analyzed by RIA using a kit manufactured by NEN, Co. LTd.

In experiment [4] the test system is platelet aggregation, induced by U-46619. Briefly: Test Examples 4: Platelet aggregation inhibiting activity (guinea pig PRP, U-46619). The class given is cell-based. To be noted: Cavia porcellus, 320 nM U-46619, 37° C., read-out: Platelet aggregation activity IC50 (concentration of 50% inhibition of platelet aggregation, induced by U-46619). As to the method: A blood sample was taken from carotid artery of a guinea pig using a syringe containing 3.8% sodium citrate solution (1/10 volume of the blood to be collected). The blood was centrifuged to obtain platelet riched plasma (PRP: number of platelets, 3×10^5 /μ1).
Two hundred microliters of the PRP and 23.75 µl of physiological saline were placed in a cuvette, which was then set in an aggregometer, followed by heating at 37° C. for two minutes, and then followed by addition of 1.25 µl of the solution of an N-(3-pyridylalkyl)sulfonamide derivative of the present invention in ethanol, for 3-min incubation. Then, U-46619, one of stable PGG2 /H2 derivatives, having strong action inducing platelet aggregation, was added, so that platelet aggregation was measured by an aggregometer [Hematracer VI: manufactured by NIKO Bioscience, K.K.].

The test system of experiment [5] is platelet aggregation caused by U-46619. Kind of experiment: Test Examples 6: Platelet aggregation inhibiting activity (human PRP, U-46619). The class given is cell-based. To be noted: for IC50: Platelet, 320 nM U-46619, 37° C., read-out: Inhibitory effect against platelet aggregation caused by U-46619 (IC50); for platelet aggregation inhibiting activity (in words): U-46619. How it is done:
A blood sample was collected from human fore arm using a syringe containing 3.8% sodium citrate solution (1/10 volume of the blood to be collected) and centrifuged to obtain platelet rich plasma (PRP; 3×10^5 platelets/μl).
as §2, with “200 μof” for “200 µl of”, “23.75 μl” for “23.75 µl”, “1.25 μl” for “1.25 μ1”, “Examples 35, 36, 37” for “Examples 1, 3, 4, 6”, “and 42” for “and 8”, “stable PGG2 /H2” for “stable PGG2/ H2”
In this instance, the term "IC50 " as used herein means concentration of the N-(3-pyridylalkyl)sulfonamide derivative of the present invention required to inhibit 50% of the platelet aggregation when platelet aggregation without introducing the inventive derivative was defined as 100%.

Experiment [6] deals with T1, thromboxane synthetase. Briefly: Test Example 7: Thromboxane synthetase inhibiting activity (human PRP, thrombin, RIA). The class given is cell-based. The settings on record: for IC50: 20 U/ml thrombin, RIA, read-out: Inhibition of thromboxane A2 synthesis (IC50); for thromboxane synthetase inhibiting activity (in words): thrombin. As to the method:
A blood sample was collected from human fore arm using a syringe containing 3.8% sodium citrate solution (1/10 volume of the blood to be collected) and centrifuged to obtain platelet rich plasma (PRP; 3×10^5 platelets/μl ).
as §3, with “200 μl” for “200 μ1”, “23.75 μl” for “23.75 µl”, “Examples 36, 37, 38” for “Examples 1, 3”, “and 40” for “and 7”, “acid (30:4:1),” for “acid (30:4:1 ),”

As to `CCOC(=O)COc1ccc(C(NS(=O)(=O)c2ccc(Cl)cc2)c2cccnc2)cc1` (stereo not shown) [Example 1, ethyl 4-[4-chlorobenzenesulfonamide-(3-pyridyl)methyl]phenyloxyacetate], in experiment [1], the IC50 was 96 µM and the “platelet aggregation inhibiting activity (in words)” value is recorded as “markedly high platelet aggregation inhibiting activity”. Besides, the IC50 on thromboxane synthetase [2] is 0.037 µM. Further, on thromboxane synthetase [2] (thrombin), the “thromboxane synthetase inhibiting activity (in words)” value is recorded as “excellent thromboxane synthetase inhibiting activity”.

With `O=C(O)COc1ccc(C(CCNS(=O)(=O)c2ccc(Cl)cc2)Cc2cccnc2)cc1` (stereo not shown) [Example 8, 4-[1-(4-chlorobenzenesulfonamido)-4-(3-pyridyl)-3-butyl]phenyloxyacetic acid], the IC50 at thromboxane synthetase [2] was 4.3 µM.

Consider `CCOC(=O)COc1ccc(C(CCNS(=O)(=O)c2ccc(Cl)cc2)Cc2cccnc2)cc1` (stereo not shown) [Example 9], for which, in experiment [1], the IC50 was 5.1 µM and the “platelet aggregation inhibiting activity (in words)” value is reported as “markedly high platelet aggregation inhibiting activity”.

On to `Cc1ccc(S(=O)(=O)NC(Cc2ccc(OCC(=O)O)cc2)c2cccnc2)cc1` (stereo not shown) [Example 11], for which the figures for the IC50 (on thromboxane synthetase [3]; in experiment [4]) were 21 µM and 1.9 µM, respectively.

With `O=C(O)COc1ccc(CC(NS(=O)(=O)c2ccccc2)c2cccnc2)cc1` (stereo not shown) [Example 13], the results for the IC50 (at thromboxane synthetase [3]; in experiment [4]) were 8.9 µM and 0.84 µM, respectively.

On to `O=C(O)/C=C/c1ccc(CC(NS(=O)(=O)c2ccc(Cl)cc2)c2cccnc2)cc1` (stereo not shown) [Example 15, 4-[2-(4-chlorobenzenesulfonamido]-2-(3-pyridyl)ethyl]cinnamic acid], for which the IC50 on thromboxane synthetase [3] came out at 36 µM; in experiment [4], 1.1 µM.

As to `O=C(O)CCc1ccc(CC(NS(=O)(=O)c2ccc(Cl)cc2)c2cccnc2)cc1` (stereo not shown) [Example 17, 3-{4-[2-(4-chlorobenzenesulfonamido)-2(3-pyridyl)ethyl]phenyl}propionic acid], the figures for the IC50 (on thromboxane synthetase [3]; in experiment [4]) were 30 µM and 1.8 µM, respectively.

In the case of `O=C(O)c1ccc(CC(NS(=O)(=O)c2ccc(Cl)cc2)c2cccnc2)cc1` (stereo not shown) [Example 19], the figures for the IC50 (on thromboxane synthetase [3]; in experiment [4]) were 1 µM and 4.2 µM, respectively.

Regarding `O=C(O)Cc1ccc(CC(NS(=O)(=O)c2ccc(Cl)cc2)c2cccnc2)cc1` (stereo not shown) [Example 21, 4-[2-(4-chlorobenzenesulfonamido)-2-(3-pyridyl)ethyl]phenylacetic acid], the IC50 at thromboxane synthetase [3] turned out to be 2.2 µM; in experiment [4], 0.68 µM.

On to `O=C(O)COc1ccc(C(CNS(=O)(=O)c2ccc(Cl)cc2)Cc2cccnc2)cc1` (stereo not shown) [Example 23, 4-[{1-(4-chlorobenzenesulfonamido)-3-(3-pyridyl)}propan-2-yl]phenoxyaceticacid], for which the IC50 worked out at 5.1 µM at thromboxane synthetase [3] and 0.36 µM in experiment [4].

With `CCOC(=O)Oc1ccc(C(CNS(=O)(=O)c2ccc(Cl)cc2)Cc2cccnc2)cc1` (stereo not shown) [Example 24], the IC50 came to 2.2 µM on thromboxane synthetase [3] and 40 µM in experiment [4].

In the case of `O=C(O)COc1ccc(CC(CNS(=O)(=O)c2ccc(Cl)cc2)c2cccnc2)cc1` (stereo not shown) [Example 26], the IC50 came to 2.4 µM at thromboxane synthetase [3] and 60 µM in experiment [4].

Turning to `CCOC(=O)Oc1ccc(CC(CNS(=O)(=O)c2ccc(Cl)cc2)c2cccnc2)cc1` (stereo not shown) [Example 27], the IC50 worked out at 28 µM at thromboxane synthetase [3] and 52 µM in experiment [4].

On to `O=C(O)c1ccc(CCC(NS(=O)(=O)c2ccc(Cl)cc2)c2cccnc2)cc1` (stereo not shown) [Example 29, 4-[3-(4-chlorobenzenesulfonamido)-3-(3-pyridyl)propyl]benzoic acid], for which the IC50 at thromboxane synthetase [3] was determined as 1.5 µM; in experiment [4], 2 µM.

With `O=C(O)COc1ccc(CCC(NS(=O)(=O)c2ccc(Cl)cc2)c2cccnc2)cc1` (stereo not shown) [Example 31, 4-[3-(4-chlorobenzenesulfonamido)-3-(3-pyridyl)propyl]phenoxyacetic acid], the IC50 at thromboxane synthetase [3] is 0.94 µM; in experiment [4] it was 15 µM.

`O=C(O)COc1ccc(CC(CCNS(=O)(=O)c2ccc(Cl)cc2)c2cccnc2)cc1` (stereo not shown) [Example 33]: the IC50 on thromboxane synthetase [3] was determined as 0.03 µM; in experiment [4], 17 µM.

In the case of `C/C(=C\c1ccc(CC(NS(=O)(=O)c2ccc(Cl)cc2)c2cccnc2)cc1)C(=O)O` (stereo not shown) [Example 35], in experiment [5], the IC50 amounted to 48 µM and the “platelet aggregation inhibiting activity (in words)” value is reported as “markedly high platelet aggregation inhibiting activity”.

For the compound `C/C(=C\c1ccc(C(CNS(=O)(=O)c2ccc(Cl)cc2)Cc2cccnc2)cc1)C(=O)O` (stereo not drawn) [Example 36, 4-[1-(4-chlorobenzenesulfonamido)-3-(3-pyridyl)-2-propyl]-α-methylcinnamic acid], on thromboxane synthetase [6], the IC50 came out at 8.3 µM and the “thromboxane synthetase inhibiting activity (in words)” value is reported as “excellent thromboxane synthetase inhibiting activity”. Also, in experiment [5], the IC50 was 71 µM and the “platelet aggregation inhibiting activity (in words)” value was “markedly high platelet aggregation inhibiting activity”.

Regarding `CCOC(=O)/C(C)=C/c1ccc(C(CNS(=O)(=O)c2ccc(Cl)cc2)c2cccnc2)cc1` (stereo not drawn) [Example 40, ethyl 4-[2-(4-chlorobenzenesulfonamido)-1-(3-pyridyl)ethyl]-α-methylcinnamate], at thromboxane synthetase [6], the IC50 is 1.5 µM and the “thromboxane synthetase inhibiting activity (in words)” value is recorded as “excellent thromboxane synthetase inhibiting activity”.

For the compound `C/C(=C\c1ccc(C(CCNS(=O)(=O)c2ccc(Cl)cc2)c2cccnc2)n1C)C(=O)O` (stereo not shown) [Example 42], in experiment [5], the IC50 was determined as 43 µM and the “platelet aggregation inhibiting activity (in words)” value is reported as “markedly high platelet aggregation inhibiting activity”.

The record behind these values is patent US5374641A, “N-(3-pyridylalkyl)sulfonamide compounds which have useful pharmaceutical activity” (Terumo Kabushiki Kaisha, priority 1991, dated 1994).
